Consider 23 compounds from patent US20250188040A1, “PHARMACEUTICAL COMPOSITIONS COMPRISING WRN HELICASE INHIBITORS” (Vividion Therapeutics, Inc., priority 2022, published 2025).

The target of one test is T1, WRN C727 (Homo sapiens, UniProt Q14191).
T1 construct: endogenous in cells; host or cells: OCI-AML2
In words: Target engagement, in vitro (lysate), OCI-AML2. The test is classed as binding. Particulars: read-out: OCI-AML2 WRN C727 TE50 in vitro (lysate). The essentials: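 Percent engagement of WRN C727 is expressed against DMSO-treated samples, measured by PRM mass spectrometry of streptavidin-enriched, probe-tagged tryptic peptides. Compound dose responses preceded probe labelling of solvent-exposed cysteines, in either living OCI-AML2 cells or their lysates.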

Another test deals with HCT 116 cells. In words: Cell growth assay (CellTiter-Glo 2.0), HCT 116 MSI-H cell line. Particulars: Homo sapiens, HCT-116, 120 h, read-out: Cell Growth Inhibition GI50 HCT-116. (In general: In ATP-based viability assays light output follows the ATP content of the culture.)
The subject of a further test is SW480 cells. In words: Cell growth assay (CellTiter-Glo 2.0), SW480 MSS cell line. Particulars: Homo sapiens, SW480, 120 h, read-out: Cell Growth Inhibition GI50 SW480.
The target in test [1] is hWRN(519-1227)_C-H3CV-GFP-10His (Homo sapiens, UniProt Q14191). The test is described as follows: Helicase Assay for WRN Inhibition (ATP-dependent, fluorescence based). The conditions noted are these: WRN Helicase IC50, 30 min preincubation with ATP, 30 min reaction.
Sequence of hWRN(519-1227)_C-H3CV-GFP-10His (Q14191 519-1227): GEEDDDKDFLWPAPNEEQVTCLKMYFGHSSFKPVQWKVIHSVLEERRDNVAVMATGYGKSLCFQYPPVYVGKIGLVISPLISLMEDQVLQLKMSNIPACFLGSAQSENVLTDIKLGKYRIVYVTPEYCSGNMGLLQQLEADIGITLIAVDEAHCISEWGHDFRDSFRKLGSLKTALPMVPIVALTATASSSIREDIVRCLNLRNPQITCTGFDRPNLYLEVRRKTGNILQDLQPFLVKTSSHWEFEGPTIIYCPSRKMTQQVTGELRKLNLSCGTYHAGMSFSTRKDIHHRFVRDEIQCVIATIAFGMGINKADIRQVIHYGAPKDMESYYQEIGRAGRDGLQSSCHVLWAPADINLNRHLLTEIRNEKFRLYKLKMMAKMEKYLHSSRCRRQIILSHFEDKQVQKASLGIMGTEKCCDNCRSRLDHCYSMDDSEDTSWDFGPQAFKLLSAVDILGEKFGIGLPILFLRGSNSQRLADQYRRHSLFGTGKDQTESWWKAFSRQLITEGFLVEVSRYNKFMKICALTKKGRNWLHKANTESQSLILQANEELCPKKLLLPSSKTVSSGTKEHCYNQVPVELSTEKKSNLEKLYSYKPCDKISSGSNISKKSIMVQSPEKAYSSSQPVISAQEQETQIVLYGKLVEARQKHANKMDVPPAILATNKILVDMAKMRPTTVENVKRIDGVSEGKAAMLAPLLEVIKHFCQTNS

Each structure is given as a SMILES string.

T1 sequence (Q14191 whole entry): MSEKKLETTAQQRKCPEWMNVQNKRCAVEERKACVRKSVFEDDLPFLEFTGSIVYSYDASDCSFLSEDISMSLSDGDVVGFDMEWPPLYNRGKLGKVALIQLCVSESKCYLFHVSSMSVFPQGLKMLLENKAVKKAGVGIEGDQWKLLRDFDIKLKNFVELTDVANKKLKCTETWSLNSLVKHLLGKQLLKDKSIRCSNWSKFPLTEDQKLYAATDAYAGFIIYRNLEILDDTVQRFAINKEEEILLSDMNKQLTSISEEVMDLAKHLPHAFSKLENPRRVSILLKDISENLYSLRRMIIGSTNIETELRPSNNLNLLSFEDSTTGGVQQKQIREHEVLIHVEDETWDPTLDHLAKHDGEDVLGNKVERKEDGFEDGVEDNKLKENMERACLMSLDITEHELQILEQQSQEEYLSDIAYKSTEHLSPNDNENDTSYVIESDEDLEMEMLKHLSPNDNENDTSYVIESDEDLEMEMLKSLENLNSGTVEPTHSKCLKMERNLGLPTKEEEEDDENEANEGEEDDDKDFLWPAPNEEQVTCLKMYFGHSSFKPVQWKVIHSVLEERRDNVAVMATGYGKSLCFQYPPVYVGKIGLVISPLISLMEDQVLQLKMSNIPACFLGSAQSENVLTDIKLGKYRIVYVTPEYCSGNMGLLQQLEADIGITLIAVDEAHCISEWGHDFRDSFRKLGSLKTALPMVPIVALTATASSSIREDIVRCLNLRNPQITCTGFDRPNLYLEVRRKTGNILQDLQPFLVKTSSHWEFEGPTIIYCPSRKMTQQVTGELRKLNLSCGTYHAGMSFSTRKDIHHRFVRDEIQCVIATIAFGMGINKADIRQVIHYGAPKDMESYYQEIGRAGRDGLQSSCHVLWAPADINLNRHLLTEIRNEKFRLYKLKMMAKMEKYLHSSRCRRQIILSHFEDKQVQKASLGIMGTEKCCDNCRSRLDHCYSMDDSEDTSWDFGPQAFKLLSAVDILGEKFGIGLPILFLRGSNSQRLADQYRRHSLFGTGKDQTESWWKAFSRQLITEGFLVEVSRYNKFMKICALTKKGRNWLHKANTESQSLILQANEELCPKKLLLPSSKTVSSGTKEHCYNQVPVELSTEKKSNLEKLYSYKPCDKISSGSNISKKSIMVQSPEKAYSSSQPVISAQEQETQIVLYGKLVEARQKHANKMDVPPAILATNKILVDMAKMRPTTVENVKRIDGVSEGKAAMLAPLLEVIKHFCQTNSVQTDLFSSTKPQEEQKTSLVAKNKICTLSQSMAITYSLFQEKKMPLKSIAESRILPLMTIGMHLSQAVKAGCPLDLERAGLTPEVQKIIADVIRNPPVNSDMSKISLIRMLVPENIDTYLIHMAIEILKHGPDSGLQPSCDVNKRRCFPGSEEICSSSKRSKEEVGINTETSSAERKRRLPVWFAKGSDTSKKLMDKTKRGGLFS

The term GI50 denotes the concentration that inhibits growth by half. Turning to `CC(C)N(C)c1ncc(C(=O)N[C@H](/C=C/S(C)(=O)=O)C2CC2)c(Oc2ccccc2)n1` [Example 186, (S,E)-N-(1-cyclopropyl-3-(methylsulfonyl)allyl)-2-(isopropyl(methyl)amino)-4-phenoxypyrimidine-5-carboxamide], the values for the IC50 (at WRN C727; in test [1]) were 0.42 µM and 0.2 µM, respectively. Also, the GI50 was 0.0195 µM in the test with HCT 116 cells and 3.3 µM in the test with SW480 cells.

Take `CS(=O)(=O)/C=C/[C@@H](NC(=O)c1cnc(C2CCCC2)nc1Oc1ccccc1)C1CCC1` [Example 9, (S,E)-N-(1-cyclobutyl-3-(methylsulfonyl)allyl)-2-cyclopentyl-4-phenoxypyrimidine-5-carboxamide]: the IC50 turned out to be 0.31 µM on WRN C727 and 0.16 µM in test [1]. The GI50 in the test with HCT 116 cells is 0.043 µM; in the test on SW480 cells, 15 µM.

With `CN(CC(F)(F)F)c1ncc(C(=O)N[C@H](/C=C/S(C)(=O)=O)C2CC2)c(Oc2ccccc2)n1` [Example 184, (S,E)-N-(1-cyclopropyl-3-(methylsulfonyl)allyl)-2-(methyl(2,2,2-trifluoroethyl)amino)-4-phenoxypyrimidine-5-carboxamide], the IC50 at WRN C727 amounted to 1.3 µM; in test [1], 2.4 µM. Moreover, the results for the concentration for 50% growth inhibition (GI50) with HCT 116 cells and in the test on SW480 cells were 0.191 µM and 3.1 µM, respectively.

With `C[C@@H](/C=C/S(C)(=O)=O)NC(=O)c1ccc(C(C)(F)F)nc1Oc1ccccc1` [Example 232, (S,E)-6-(1,1-difluoroethyl)-N-(4-(methylsulfonyl)but-3-en-2-yl)-2-phenoxynicotinamide], the IC50 at WRN C727 amounted to 2.36 µM; in test [1] it was 0.3 µM. Also, the GI50 with HCT 116 cells was found to be 0.0699 µM; in the test on SW480 cells, 28.1 µM.

Turning to `C[C@@H](/C=C/S(C)(=O)=O)NC(=O)c1cnc(CC(F)(F)F)nc1Oc1ccccc1` [Example 260, (S,E)-N-(4-(methylsulfonyl)but-3-en-2-yl)-4-phenoxy-2-(2,2,2-trifluoroethyl)pyrimidine-5-carboxamide], the IC50 at WRN C727 was greater than 100 µM; in test [1], 8.2 µM. Besides, the GI50 with HCT 116 cells was found to be 1.8 µM; in the test on SW480 cells, 41 µM.

Regarding `CCN(C)c1ncc(C(=O)N[C@H](/C=C/S(C)(=O)=O)C2CC2)c(Oc2ccccc2)n1` [Example 185, (S,E)-N-(1-cyclopropyl-3-(methylsulfonyl)allyl)-2-(ethyl(methyl)amino)-4-phenoxypyrimidine-5-carboxamide], the IC50 was 1.72 µM at WRN C727 and 0.239 µM in test [1]. Further, the values for the concentration for 50% growth inhibition (GI50) in the test on HCT 116 cells and with SW480 cells were 0.0274 µM and 5.4 µM, respectively.

For the compound `C=C(C#N)CNC(=O)c1cnc(C(C)(C)C)nc1Oc1ccccc1` [Example 270, 2-(tert-butyl)-N-(2-cyanoallyl)-4-phenoxypyrimidine-5-carboxamide], the IC50 on WRN C727 is 8.53 µM; in test [1], 0.91 µM. The GI50 is 0.51 µM in the test on HCT 116 cells and 11 µM in the test with SW480 cells.

`C[C@@H](/C=C/S(C)(=O)=O)NC(=O)c1cnc(C2CCCC2)nc1OC1CCC1` [Example 127, (S,E)-4-cyclobutoxy-2-cyclopentyl-N-(4-(methylsulfonyl)but-3-en-2-yl)pyrimidine-5-carboxamide]: the values for the IC50 (at WRN C727; in test [1]) were 7.28 µM and 4.27 µM, respectively. In addition, the results for the GI50 with HCT 116 cells and in the test on SW480 cells were 1.3 µM and 5.3 µM, respectively.

As to `CC(C)[C@@H](/C=C/S(C)(=O)=O)NC(=O)c1cnc(C2CCCC2)nc1Oc1ccccc1` [Example 7, (S,E)-2-cyclopentyl-N-(4-methyl-1-(methylsulfonyl)pent-1-en-3-yl)-4-phenoxypyrimidine-5-carboxamide], the figures for the IC50 (on WRN C727; in test [1]) were 14 µM and 2.7 µM, respectively. In addition, the GI50 with HCT 116 cells was 1.16 µM; with SW480 cells, greater than 19.5 µM.

As to `C[C@@H](/C=C/S(C)(=O)=O)NC(=O)c1c(N)nc(C2CCCC2)nc1Oc1ccccc1` [Example 255, (S,E)-4-amino-2-cyclopentyl-N-(4-(methylsulfonyl)but-3-en-2-yl)-6-phenoxypyrimidine-5-carboxamide], the results for the IC50 (at WRN C727; in test [1]) were 3.77 µM and 1.14 µM, respectively. The GI50 is 0.329 µM in the test with HCT 116 cells and greater than 12.7 µM with SW480 cells.

In the case of `C[C@@H](/C=C/S(C)(=O)=O)NC(=O)c1cnc(C2CCCO2)nc1Oc1ccccc1` (stereo partly drawn) [Example 78, N—((S,E)-4-(methylsulfonyl)but-3-en-2-yl)-4-phenoxy-2-(tetrahydrofuran-2-yl)pyrimidine-5-carboxamide], the IC50 on WRN C727 worked out at 50 µM; in test [1], 9.33 µM. The GI50 with HCT 116 cells is 2.6 µM; with SW480 cells it was greater than 10 µM.

On to `C[C@@H](/C=C/S(C)(=O)=O)NC(=O)c1cnc(C2CCCC2)nc1Oc1ccc(F)cc1` [Example 113, (S,E)-2-cyclopentyl-4-(4-fluorophenoxy)-N-(4-(methylsulfonyl)but-3-en-2-yl)pyrimidine-5-carboxamide], for which the IC50 came to 2.33 µM at WRN C727 and 1.8 µM in test [1]. In addition, the GI50 with HCT 116 cells turned out to be 1.1 µM; in the test with SW480 cells it was 6.2 µM.

On to `C[C@@H](/C=C/S(C)(=O)=O)NC(=O)c1cnc(C2(C)CC2)nc1Oc1ccccc1` [Example 38, (S,E)-2-(1-methylcyclopropyl)-N-(4-(methylsulfonyl)but-3-en-2-yl)-4-phenoxypyrimidine-5-carboxamide], for which the figures for the IC50 (on WRN C727; in test [1]) were 0.8 µM and 0.434 µM, respectively. The 50% growth inhibitory concentration (GI50) worked out at 0.157 µM with HCT 116 cells and 11.7 µM with SW480 cells.

Take `C[C@@H](/C=C/S(C)(=O)=O)NC(=O)c1cnc(C2=CCCC2)cc1Oc1ccccc1` [Example 200, (S,E)-6-(cyclopent-1-en-1-yl)-N-(4-(methylsulfonyl)but-3-en-2-yl)-4-phenoxynicotinamide]: the IC50 worked out at 21.7 µM on WRN C727 and 4.5 µM in test [1]. Besides, the GI50 in the test on HCT 116 cells was 3.6 µM; in the test with SW480 cells, greater than 10 µM.

In the case of `CC(C)(C)c1ncc(C(=O)N[C@H](/C=C/S(C)(=O)=O)C2CC2)c(O[C@H]2C[C@@H]3C[C@@H]3C2)n1` [Example 160, 4-(((1R,3s,5S)-bicyclo[3.1.0]hexan-3-yl)oxy)-2-(tert-butyl)-N—((S,E)-1-cyclopropyl-3-(methylsulfonyl)allyl)pyrimidine-5-carboxamide], the IC50 came to 6 µM on WRN C727 and 0.9 µM in test [1]. Besides, the values for the GI50 with HCT 116 cells and with SW480 cells were 0.15 µM and 3.4 µM, respectively.

Take `C=C(C#N)CNC(=O)c1cnc(C2CCCC2)nc1Oc1ccccc1` [Example 268, N-(2-cyanoallyl)-2-cyclopentyl-4-phenoxypyrimidine-5-carboxamide]: the IC50 at WRN C727 worked out at 23.3 µM; in test [1], 1.7 µM. Besides, the GI50 with HCT 116 cells was determined as 2.1 µM; with SW480 cells it was 14 µM.

In the case of `CS(=O)(=O)/C=C/CNC(=O)c1cnc(C2CCCCC2)nc1Oc1ccccc1` [Example 76, (E)-2-cyclohexyl-N-(3-(methylsulfonyl)allyl)-4-phenoxypyrimidine-5-carboxamide], the IC50 at WRN C727 stood at 50 µM; in test [1], 4.9 µM. The GI50 was 3.4 µM with HCT 116 cells and greater than 10 µM with SW480 cells.

On to `COC[C@@H](/C=C/S(C)(=O)=O)NC(=O)c1cnc(C2CCCC2)nc1Oc1ccccc1` [Example 10, (R,E)-2-cyclopentyl-N-(1-methoxy-4-(methylsulfonyl)but-3-en-2-yl)-4-phenoxypyrimidine-5-carboxamide], for which the figures for the IC50 (at WRN C727; in test [1]) were 0.24 µM and 0.13 µM, respectively. The GI50 in the test on HCT 116 cells was 0.0724 µM; in the test on SW480 cells, 27.4 µM.

As for `C[C@@H](/C=C/S(C)(=O)=O)NC(=O)c1cnc(N2CCCC2(C)C)nc1Oc1ccccc1` [Example 174, (S,E)-2-(2,2-dimethylpyrrolidin-1-yl)-N-(4-(methylsulfonyl)but-3-en-2-yl)-4-phenoxypyrimidine-5-carboxamide], the IC50 on WRN C727 was found to be 11.2 µM; in test [1], 6.8 µM. Also, the GI50 in the test on HCT 116 cells came to 2.2 µM; with SW480 cells, 11 µM.

For the compound `C[C@@H](/C=C/S(C)(=O)=O)NC(=O)c1cnc(C2CC3(CC3)C2)nc1Oc1ccccc1` [Example 55, (S,E)-N-(4-(methylsulfonyl)but-3-en-2-yl)-4-phenoxy-2-(spiro[2.3]hexan-5-yl)pyrimidine-5-carboxamide], the IC50 was found to be 8.68 µM at WRN C727 and 0.91 µM in test [1]. The GI50 in the test on HCT 116 cells is 0.15 µM; in the test with SW480 cells it was 6.2 µM.

Turning to `CC(F)(F)c1nc(Oc2ccccc2)c(C(=O)N[C@H](/C=C/S(C)(=O)=O)C2CC2)cc1F` [Example 235, (S,E)-N-(1-cyclopropyl-3-(methylsulfonyl)allyl)-6-(1,1-difluoroethyl)-5-fluoro-2-phenoxynicotinamide], the IC50 was 70 µM at WRN C727 and 0.0893 µM in test [1]. Also, the GI50 in the test with HCT 116 cells was 0.0394 µM; in the test with SW480 cells, 8.3 µM.

With `C[C@@H](/C=C/S(C)(=O)=O)NC(=O)c1cnc(C(C)(C)O)nc1Oc1ccccc1` [Example 218, (S,E)-2-(2-hydroxypropan-2-yl)-N-(4-(methylsulfonyl)but-3-en-2-yl)-4-phenoxypyrimidine-5-carboxamide], the IC50 came to 17.1 µM on WRN C727 and 4.3 µM in test [1]. The 50% growth inhibitory concentration (GI50) is 1.38 µM with HCT 116 cells and greater than 29.3 µM with SW480 cells.

For `C[C@@H](/C=C/S(C)(=O)=O)NC(=O)c1cnc(C(F)(F)C(F)(F)F)nc1Oc1ccccc1` [Example 83, (S,E)-N-(4-(methylsulfonyl)but-3-en-2-yl)-2-(perfluoroethyl)-4-phenoxypyrimidine-5-carboxamide], the IC50 at WRN C727 was 0.38 µM; in test [1], 0.238 µM. Moreover, the GI50 in the test on HCT 116 cells was 0.202 µM; with SW480 cells it was 19.1 µM.
